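Exposure lasted 48 hours, with cells grown in 96-well plates and compounds tested at five concentrations. GI50 is the concentration that inhibits growth by half. At the TGI there is no net growth.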
Key:
Test in all cases: DTP human tumour cell line panel, 48 h
K-562 leukemia = tested on: K-562 leukemia
HS 578T breast = tested on: HS 578T breast
SR leukemia = tested on: SR leukemia
M14 melanoma = tested on: M14 melanoma
MOLT-4 leukemia = tested on: MOLT-4 leukemia
786-0 renal = tested on: 786-0 renal
SK-MEL-5 melanoma = tested on: SK-MEL-5 melanoma
RPMI-8226 leukemia = tested on: RPMI-8226 leukemia
HT29 colon = tested on: HT29 colon
EKVX NSCLC = tested on: EKVX NSCLC
NCI-H522 lung = tested on: NCI-H522 lung
KM12 colon = tested on: KM12 colon
SN12C renal = tested on: SN12C renal
OVCAR-5 ovarian = tested on: OVCAR-5 ovarian
SNB-19 CNS = tested on: SNB-19 CNS
HOP-92 NSCLC = tested on: HOP-92 NSCLC
HCT-15 colon = tested on: HCT-15 colon
COLO 205 colon = tested on: COLO 205 colon
DU-145 prostate = tested on: DU-145 prostate
SNB-75 CNS = tested on: SNB-75 CNS
HOP-62 NSCLC = tested on: HOP-62 NSCLC
UO-31 renal = tested on: UO-31 renal
SF-539 CNS = tested on: SF-539 CNS
HCT-116 colon = tested on: HCT-116 colon
A549 NSCLC = tested on: A549 NSCLC
MDA-MB-231 breast = tested on: MDA-MB-231 breast
SK-MEL-2 melanoma = tested on: SK-MEL-2 melanoma
SW-620 colon = tested on: SW-620 colon
UACC-257 melanoma = tested on: UACC-257 melanoma
U251 CNS = tested on: U251 CNS
OVCAR-8 ovarian = tested on: OVCAR-8 ovarian
T-47D breast = tested on: T-47D breast
NCI-H460 lung = tested on: NCI-H460 lung
SF-295 CNS = tested on: SF-295 CNS
SK-OV-3 ovarian = tested on: SK-OV-3 ovarian
UACC-62 melanoma = tested on: UACC-62 melanoma
MDA-MB-435 = tested on: MDA-MB-435
MCF7 breast = tested on: MCF7 breast
NCI-H226 lung = tested on: NCI-H226 lung
OVCAR-4 ovarian = tested on: OVCAR-4 ovarian
TK-10 renal = tested on: TK-10 renal
A498 renal = tested on: A498 renal
HL-60(TB) leukemia = tested on: HL-60(TB) leukemia
MALME-3M melanoma = tested on: MALME-3M melanoma
NCI/ADR-RES ovarian = tested on: NCI/ADR-RES ovarian
ACHN renal = tested on: ACHN renal
IGROV1 ovarian = tested on: IGROV1 ovarian
HCC-2998 colon = tested on: HCC-2998 colon
SF-268 CNS = tested on: SF-268 CNS
CAKI-1 renal = tested on: CAKI-1 renal
LOX IMVI melanoma = tested on: LOX IMVI melanoma
SK-MEL-28 melanoma = tested on: SK-MEL-28 melanoma
CCRF-CEM leukemia = tested on: CCRF-CEM leukemia
BT-549 breast = tested on: BT-549 breast
PC-3 prostate = tested on: PC-3 prostate
NCI-H23 lung = tested on: NCI-H23 lung
OVCAR-3 ovarian = tested on: OVCAR-3 ovarian

In the case of `CCN(CCNc1ccc(C)c2sc3ccccc3c(=O)c12)CC(C)(C)O`, the GI50 (K-562 leukemia) is reported as 2.94 µM, the TGI (K-562 leukemia) is reported as > 22.2 µM and the GI50 (HS 578T breast) is reported as 11.5 µM. For the same molecule, the TGI (HS 578T breast) was 29.2 µM, the GI50 (SR leukemia) was 4.76 µM and the TGI (SR leukemia) was > 100 µM. The GI50 (M14 melanoma) was 4.21 µM, the TGI (M14 melanoma) was 12.2 µM and the GI50 (MOLT-4 leukemia) was 6.26 µM. The TGI (MOLT-4 leukemia) was > 46 µM, the GI50 (786-0 renal) was 8.31 µM and the TGI (786-0 renal) was 23 µM. It also gave a GI50 (SK-MEL-5 melanoma) of 2.31 µM, a TGI (SK-MEL-5 melanoma) of 6.17 µM and a GI50 (RPMI-8226 leukemia) of 2.11 µM. For the same molecule, the TGI (RPMI-8226 leukemia) was 8.04 µM, the GI50 (HT29 colon) was 2.68 µM and the TGI (HT29 colon) was 7.84 µM. For the same molecule, the GI50 (EKVX NSCLC) was 20.1 µM, the TGI (EKVX NSCLC) was > 66.7 µM and the GI50 (NCI-H522 lung) was 14.9 µM. For the same molecule, the TGI (NCI-H522 lung) was 47.8 µM, the GI50 (KM12 colon) was 4.23 µM and the TGI (KM12 colon) was 14.1 µM. The GI50 (SN12C renal) was 13.2 µM, the TGI (SN12C renal) was 28.3 µM and the GI50 (OVCAR-5 ovarian) was 16.8 µM. The TGI (OVCAR-5 ovarian) was 36.5 µM, the GI50 (SNB-19 CNS) was 11.9 µM and the TGI (SNB-19 CNS) was 25.9 µM. For the same molecule, the GI50 (HOP-92 NSCLC) was 5.47 µM, the TGI (HOP-92 NSCLC) was 20.5 µM and the GI50 (HCT-15 colon) was 2.59 µM. The TGI (HCT-15 colon) was 7.78 µM, the GI50 (COLO 205 colon) was 3 µM and the TGI (COLO 205 colon) was 13.2 µM. It also gave a GI50 (DU-145 prostate) of 15.4 µM, a TGI (DU-145 prostate) of 38.2 µM and a GI50 (SNB-75 CNS) of 15.7 µM. It also gave a TGI (SNB-75 CNS) of 48.6 µM, a GI50 (HOP-62 NSCLC) of 14.6 µM and a TGI (HOP-62 NSCLC) of 34.3 µM. For the same molecule, the GI50 (UO-31 renal) was 7.34 µM, the TGI (UO-31 renal) was 24.3 µM and the GI50 (SF-539 CNS) was 12.1 µM. The TGI (SF-539 CNS) was 25.2 µM, the GI50 (HCT-116 colon) was 6.62 µM and the TGI (HCT-116 colon) was 22.6 µM. The GI50 (A549 NSCLC) was 6.84 µM, the TGI (A549 NSCLC) was 25.5 µM and the GI50 (MDA-MB-231 breast) was 6.88 µM. The TGI (MDA-MB-231 breast) was 23.7 µM, the GI50 (SK-MEL-2 melanoma) was 11.9 µM and the TGI (SK-MEL-2 melanoma) was 33 µM. For the same molecule, the GI50 (SW-620 colon) was 4.63 µM, the TGI (SW-620 colon) was 15.8 µM and the GI50 (UACC-257 melanoma) was 2.15 µM. It also gave a TGI (UACC-257 melanoma) of 5.43 µM, a GI50 (U251 CNS) of 5.67 µM and a TGI (U251 CNS) of 19.4 µM. The GI50 (OVCAR-8 ovarian) was 17.8 µM, the TGI (OVCAR-8 ovarian) was > 71.6 µM and the GI50 (T-47D breast) was 13.4 µM. The TGI (T-47D breast) was 47.3 µM, the GI50 (NCI-H460 lung) was 3.24 µM and the TGI (NCI-H460 lung) was 11.2 µM. For the same molecule, the GI50 (SF-295 CNS) was 3.77 µM, the TGI (SF-295 CNS) was 20.2 µM and the GI50 (SK-OV-3 ovarian) was 11.1 µM. It also gave a TGI (SK-OV-3 ovarian) of 27 µM, a GI50 (UACC-62 melanoma) of 2.9 µM and a TGI (UACC-62 melanoma) of 9.48 µM. It also gave a GI50 (MDA-MB-435) of 6.51 µM, a TGI (MDA-MB-435) of 28.6 µM and a GI50 (MCF7 breast) of 11.1 µM. The TGI (MCF7 breast) was 26.8 µM, the GI50 (NCI-H226 lung) was 15.2 µM and the TGI (NCI-H226 lung) was 33 µM. For the same molecule, the GI50 (OVCAR-4 ovarian) was 21.2 µM, the TGI (OVCAR-4 ovarian) was > 92.1 µM and the GI50 (TK-10 renal) was 14.3 µM. The TGI (TK-10 renal) was 33.7 µM, the GI50 (A498 renal) was 7.46 µM and the TGI (A498 renal) was 21.5 µM. For the same molecule, the GI50 (HL-60(TB) leukemia) was 8.9 µM, the TGI (HL-60(TB) leukemia) was > 35.7 µM and the GI50 (MALME-3M melanoma) was 17.8 µM. It also gave a TGI (MALME-3M melanoma) of 54.6 µM, a GI50 (NCI/ADR-RES ovarian) of 14.1 µM and a TGI (NCI/ADR-RES ovarian) of 56.1 µM. The GI50 (ACHN renal) was 12.3 µM, the TGI (ACHN renal) was 34.8 µM and the GI50 (IGROV1 ovarian) was 13.2 µM. For the same molecule, the TGI (IGROV1 ovarian) was 31.5 µM, the GI50 (HCC-2998 colon) was 8.81 µM and the TGI (HCC-2998 colon) was 27.3 µM. For the same molecule, the GI50 (SF-268 CNS) was 14.9 µM, the TGI (SF-268 CNS) was 32.2 µM and the GI50 (CAKI-1 renal) was 5.35 µM. It also gave a TGI (CAKI-1 renal) of 22.4 µM, a GI50 (LOX IMVI melanoma) of 6.14 µM and a TGI (LOX IMVI melanoma) of 18.9 µM. The GI50 (SK-MEL-28 melanoma) was 6.16 µM, the TGI (SK-MEL-28 melanoma) was 17.8 µM and the GI50 (CCRF-CEM leukemia) was 6.95 µM. For the same molecule, the TGI (CCRF-CEM leukemia) was 34.5 µM, the GI50 (BT-549 breast) was 15.3 µM and the TGI (BT-549 breast) was 36.6 µM. It also gave a GI50 (PC-3 prostate) of 12.9 µM, a TGI (PC-3 prostate) of 53.5 µM and a GI50 (NCI-H23 lung) of 15.4 µM. The TGI (NCI-H23 lung) was 41.8 µM, the GI50 (OVCAR-3 ovarian) was 13.1 µM and the TGI (OVCAR-3 ovarian) was 27.4 µM.

— PubChem BioAssay (NCI)
